In data set [1] the test system is Mus musculus. Briefly: Anti-osteoporosis activity in OVX-induced osteoporosis C57BL/6J mouse model assessed as reduction in osteocalcin level at 10 mg/kg, IG administered once a day for 4 weeks by ELISA method. Type of data set: functional, organism-based. (In general: An ELISA detects its analyte on a solid surface through an enzyme-linked reagent.)
In data set [2] the test system is Mus musculus. Description: Anti-osteoporosis activity in OVX-induced osteoporosis C57BL/6J mouse model assessed as reduction in ACP5 level at 10 mg/kg, IG administered once a day for 4 weeks by ELISA method. In kind it is functional, organism-based.
Data set [3] deals with Mus musculus. Briefly: Anti-osteoporosis activity in OVX-induced osteoporosis C57BL/6J mouse model assessed as recovery of serum estradiol level at 10 mg/kg, IG administered once a day for 4 weeks by ELISA method. Type of data set: functional, organism-based.
Data set [4] has as its system Mus musculus. Description: Anti-osteoporosis activity in OVX-induced osteoporosis C57BL/6J mouse model assessed as reduction in PINP level at 10 mg/kg, IG administered once a day for 4 weeks by ELISA method. In kind it is functional, organism-based.
In data set [5] the test system is Mus musculus. Description: Anti-osteoporosis activity in OVX-induced osteoporosis C57BL/6J mouse model assessed as prevention of trabecular number decrease in femur at 10 mg/kg, IG administered once a day for 4 weeks by micro-CT scanning analysis. Type of data set: functional, organism-based.
The subject of data set [6] is Mus musculus. Description: Anti-osteoporosis activity in C57BL/6J mouse model assessed as downregulation of OVX-induced TNF-alpha accumulation at 10 mg/kg, IG administered once a day for 4 weeks by ELISA method. In kind it is functional, organism-based.
Data set [7] has as its system Mus musculus. Description: Anti-osteoporosis activity in OVX-induced osteoporosis C57BL/6J mouse model assessed as prevention of bone volume/[…] volume decrease in femur at 10 mg/kg, IG administered once a day for 4 weeks by micro-CT scanning analysis. In kind it is functional, organism-based.
For data set [8], the system named is Mus musculus. Description: Anti-osteoporosis activity in OVX-induced osteoporosis C57BL/6J mouse model assessed as reduction in RANKL level at 10 mg/kg, IG administered once a day for 4 weeks by ELISA method. In kind it is functional, organism-based.
The subject of data set [9] is BMDM. Description: Inhibition of osteoclastogenesis in C57BL/6J mouse Bone marrow macrophage cells assessed as inhibition of RANKL-stimulated osteoclast formation measured after 6 days by tartrate-resistant acid phosphatase (TRAP) staining assay. To be noted: 144 h.
Data set [10] has as its target T1, Peroxisome proliferator-activated receptor gamma (Homo sapiens, UniProt P37231).
T1 sequence (P37231 whole entry): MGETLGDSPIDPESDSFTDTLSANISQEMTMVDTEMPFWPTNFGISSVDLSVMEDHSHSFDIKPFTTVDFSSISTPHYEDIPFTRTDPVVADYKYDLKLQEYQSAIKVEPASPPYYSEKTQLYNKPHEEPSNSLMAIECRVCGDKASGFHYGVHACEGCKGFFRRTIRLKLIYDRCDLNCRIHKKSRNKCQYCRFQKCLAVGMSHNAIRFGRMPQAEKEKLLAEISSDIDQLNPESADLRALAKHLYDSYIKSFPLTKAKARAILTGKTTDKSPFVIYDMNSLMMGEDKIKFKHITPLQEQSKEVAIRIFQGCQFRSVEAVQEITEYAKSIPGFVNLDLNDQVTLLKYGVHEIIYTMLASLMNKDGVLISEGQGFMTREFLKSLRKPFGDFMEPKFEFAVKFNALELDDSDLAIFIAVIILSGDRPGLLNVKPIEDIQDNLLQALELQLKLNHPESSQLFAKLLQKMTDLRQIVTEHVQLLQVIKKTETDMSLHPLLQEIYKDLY
Briefly: Antagonist activity at PPAR gamma LBD (203 to 476 residues) (unknown origin) expressed in HEK293T cells co-transfected with pCMV-GAL4-PPARgamma-LBD-SV40-Renilla-luciferase assessed as reduction of rosiglitazone induced PPAR-gamma activation incubated for 24 hrs by dural-luciferase reporter assay. In kind it is cell-based. In general terms: Reporter assays use an easily measured gene product as a stand-in for the process of interest.

Data set [11] has as its system BMDM. Description: cells. Particulars: Mus musculus, 144 h, read-out: INH.
Description: Inhibition of osteoclastogenesis in C57BL/6J mouse Bone marrow macrophage cells assessed as inhibition of RANKL-stimulated osteoclast formation at 10 uM measured after 6 days by tartrate-resistant acid phosphatase (TRAP) staining assay relative to control
The subject of data set [12] is BMDM. Briefly: Cytotoxicity against mouse Bone marrow macrophage at 10 uM measured after 72 hrs by MTT assay. In kind it is toxicity, cell-based. In general terms: Formazan colour is commonly taken as a measure of viable cells.
Data set [13] deals with Mus musculus. Briefly: Anti-osteoporosis activity in OVX-induced osteoporosis C57BL/6J mouse model assessed as prevention of increase in bone surface area/bone volume in femur at 10 mg/kg, IG administered once a day for 4 weeks by micro-CT scanning analysis. Type of data set: functional, organism-based.
For data set [14], the system named is Mus musculus. Description: Anti-osteoporosis activity in OVX-induced osteoporosis C57BL/6J mouse model assessed as reduction in CTX-1 level at 10 mg/kg, IG administered once a day for 4 weeks by ELISA method. Type of data set: functional, organism-based.
Data set [15] concerns Mus musculus. Briefly: Anti-osteoporosis activity in C57BL/6J mouse model assessed as downregulation of OVX-induced IL-6 accumulation at 10 mg/kg, IG administered once a day for 4 weeks by ELISA method. Type of data set: functional, organism-based.
Data set [16] concerns Mus musculus. Description: Anti-osteoporosis activity in OVX-induced osteoporosis C57BL/6J mouse model assessed as prevention of trabecular thickness decrease in femur at 10 mg/kg, IG administered once a day for 4 weeks by micro-CT scanning analysis. In kind it is functional, organism-based.

Active and inactive are the calls of the source. The calls are words filed in the database; no cut-off is given here.

Activity, IC50 and inhibition data for 1 molecule are collected here from ChEMBL document CHEMBL5579883, “Discovery of Novel Neo-Clerodane Derivatives as Potent Dual-Functional Antiosteoporosis Agents through Targeting Peroxisome Proliferator-Activated Receptor-γ” (J Med Chem, 2024).

What is called IC50 is the concentration needed to halve the response being measured.

Take `CCC(C)C(=O)O[C@@H](C[C@@]1(C)[C@H](C)C[C@H](OC(C)=O)[C@]2(COC(C)=O)[C@@H]1CCC[C@]21CO1)C1=CC(=O)OC1` (stereo partly specified): the result in data set [1], in data set [2], in data set [3], in data set [4], in data set [5] and in data set [6] was Active. For the same molecule, the result in data set [7], in [8], in data set [13], in data set [14], in data set [15] and in data set [16] was Active. Also, the IC50 came out at 1.42 µM in data set [9] and 12.2 µM in [10]. For the same molecule, the inhibition at 10 µM in [11] was > 50%. Further, the Activity result in data set [12] was “Non-Toxic”.
